Data from US7045532B2 (Millennium Pharmaceuticals, Inc., priority 1999, dated 2006).
pKi: −log10 of the molar value. Like-named read-outs stand apart in the source and are kept apart here.

Key:
Carboxypeptidase A = biological target: T1, Carboxypeptidase A (Bos taurus, UniProt P00730); experiment: Carboxypeptidase A activity assay; type: biochemical; conditions: Ki class; compounds tested in 5% DMSO, 12 concentrations
T1 sequence (P00730 111-419): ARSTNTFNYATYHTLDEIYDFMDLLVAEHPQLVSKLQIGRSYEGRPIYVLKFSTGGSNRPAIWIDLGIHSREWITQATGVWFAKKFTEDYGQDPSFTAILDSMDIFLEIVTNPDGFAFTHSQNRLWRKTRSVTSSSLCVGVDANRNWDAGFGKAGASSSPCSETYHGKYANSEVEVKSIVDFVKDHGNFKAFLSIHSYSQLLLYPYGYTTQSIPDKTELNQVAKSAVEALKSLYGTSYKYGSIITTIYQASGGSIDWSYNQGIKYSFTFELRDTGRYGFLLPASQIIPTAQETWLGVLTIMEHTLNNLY
Procedure: Carboxypeptidase A activity was measured using a literature assay (Holmquist and Riordan, “Carboxypeptidase A,” Methods of Enzymatic Analysis (1984) p. 44–60). The assay was adapted to a 96 well format by adjusting to a 300 μL assay volume and using ultra-thin bottom plates (Costar/Corning) read at 328 nm. The assay was stopped using EDTA.
The activity of the test compounds was investigated using the procedure outlined above. The compounds were tested in 5% DMSO. Enzyme activity was measured at 12 compound concentrations. The Ki was calculated by using Ki=Kiapp/(1+[S]/Km).
To determine whether a test compound is capable of modulating carboxypeptidase A's ability to cleave a substrate the method described in Holmquist and Riordan, Carboxypeptidase A, p44–60, Peptidase and Their Inhibitors in Method of Enzymatic Analysis (1984), may be used.
The assay may be adapted to a 96 well format by adjusting to a 300 μl assay volume and using ultrathin bottom plates (Costar/Coming) read at 328 nm with a final assay volume of 300 μl. The assay may be stopped using EDTA.

ACE (Sigma, A2580) = biological target: T2, ACE (Sigma, A2580) (Sus scrofa, UniProt F1RRW5); experiment: ACE enzymatic activity assay; type: biochemical, porcine; conditions: Ki class; compounds tested in 5% DMSO, 12 concentrations
T2 construct: ACE from porcine kidney; purchased Sigma A2580; host or cells: porcine kidney
T2 sequence (F1RRW5 34-1309): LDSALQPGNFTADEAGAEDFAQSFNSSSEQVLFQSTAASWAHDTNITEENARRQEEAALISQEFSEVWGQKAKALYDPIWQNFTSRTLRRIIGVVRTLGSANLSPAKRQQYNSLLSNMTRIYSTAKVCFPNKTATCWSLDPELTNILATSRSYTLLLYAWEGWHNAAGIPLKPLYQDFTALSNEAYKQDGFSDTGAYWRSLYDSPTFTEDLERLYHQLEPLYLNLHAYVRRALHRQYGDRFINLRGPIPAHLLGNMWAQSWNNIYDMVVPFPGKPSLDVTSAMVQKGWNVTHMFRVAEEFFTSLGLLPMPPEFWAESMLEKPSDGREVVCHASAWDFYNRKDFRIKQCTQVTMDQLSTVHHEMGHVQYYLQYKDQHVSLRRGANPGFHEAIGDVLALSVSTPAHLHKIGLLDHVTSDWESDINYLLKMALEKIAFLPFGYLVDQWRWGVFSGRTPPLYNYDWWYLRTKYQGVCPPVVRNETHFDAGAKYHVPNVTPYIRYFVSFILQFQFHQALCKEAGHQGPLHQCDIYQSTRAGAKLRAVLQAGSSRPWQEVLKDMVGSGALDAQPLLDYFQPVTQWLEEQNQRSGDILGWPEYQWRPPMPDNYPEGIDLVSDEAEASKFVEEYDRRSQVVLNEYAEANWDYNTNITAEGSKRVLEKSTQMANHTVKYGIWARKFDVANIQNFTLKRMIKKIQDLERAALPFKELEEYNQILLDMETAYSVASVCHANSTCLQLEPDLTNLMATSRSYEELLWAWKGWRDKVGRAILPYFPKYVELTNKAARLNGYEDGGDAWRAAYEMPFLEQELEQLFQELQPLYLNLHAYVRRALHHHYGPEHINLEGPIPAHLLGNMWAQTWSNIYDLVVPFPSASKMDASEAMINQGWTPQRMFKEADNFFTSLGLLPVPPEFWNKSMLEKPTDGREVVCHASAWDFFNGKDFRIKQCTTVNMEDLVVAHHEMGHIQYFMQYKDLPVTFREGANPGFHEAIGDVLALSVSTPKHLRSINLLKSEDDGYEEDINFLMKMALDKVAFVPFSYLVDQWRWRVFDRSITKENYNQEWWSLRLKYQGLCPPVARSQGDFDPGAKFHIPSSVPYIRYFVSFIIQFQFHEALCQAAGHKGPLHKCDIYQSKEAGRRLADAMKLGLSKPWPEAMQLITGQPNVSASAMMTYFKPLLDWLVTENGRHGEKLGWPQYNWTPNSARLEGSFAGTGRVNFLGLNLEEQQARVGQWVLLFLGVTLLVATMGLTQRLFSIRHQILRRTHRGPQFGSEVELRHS
Procedure: ACE (Sigma, A2580) enzymatic activity was assayed in microtiter plates using the following protocol. ACE assay buffer was made from 50 mM HEPES (Sigma), 300 mM sodium chloride (Sigma), and 0.01% Brij-35 (Pierce Chemical Co) at pH 7.5.
Reactions were mixed and incubated at 25° C. Enzymatic cleavage of the substrate is marked by a fluorescence change (excitation 330 nm, emission 415 nm).
The activity of the test compounds was investigated using the procedure outlined above. The compounds were tested in 5% DMSO. Enzyme activity was measured at 12 compound concentrations. […]. […]

ACE-2 = biological target: T3, ACE-2 (Homo sapiens, UniProt Q9BYF1); experiment: ACE-2 Competitive Substrate Assay (ACS Assay); type: biochemical
T3 construct: a stop codon inserted after the serine immediately preceding the transmembrane domain; made in house; host or cells: CHO K1 cells (transient transfection, purified from conditioned medium)
T3 sequence (Q9BYF1 18-740 limits assumed): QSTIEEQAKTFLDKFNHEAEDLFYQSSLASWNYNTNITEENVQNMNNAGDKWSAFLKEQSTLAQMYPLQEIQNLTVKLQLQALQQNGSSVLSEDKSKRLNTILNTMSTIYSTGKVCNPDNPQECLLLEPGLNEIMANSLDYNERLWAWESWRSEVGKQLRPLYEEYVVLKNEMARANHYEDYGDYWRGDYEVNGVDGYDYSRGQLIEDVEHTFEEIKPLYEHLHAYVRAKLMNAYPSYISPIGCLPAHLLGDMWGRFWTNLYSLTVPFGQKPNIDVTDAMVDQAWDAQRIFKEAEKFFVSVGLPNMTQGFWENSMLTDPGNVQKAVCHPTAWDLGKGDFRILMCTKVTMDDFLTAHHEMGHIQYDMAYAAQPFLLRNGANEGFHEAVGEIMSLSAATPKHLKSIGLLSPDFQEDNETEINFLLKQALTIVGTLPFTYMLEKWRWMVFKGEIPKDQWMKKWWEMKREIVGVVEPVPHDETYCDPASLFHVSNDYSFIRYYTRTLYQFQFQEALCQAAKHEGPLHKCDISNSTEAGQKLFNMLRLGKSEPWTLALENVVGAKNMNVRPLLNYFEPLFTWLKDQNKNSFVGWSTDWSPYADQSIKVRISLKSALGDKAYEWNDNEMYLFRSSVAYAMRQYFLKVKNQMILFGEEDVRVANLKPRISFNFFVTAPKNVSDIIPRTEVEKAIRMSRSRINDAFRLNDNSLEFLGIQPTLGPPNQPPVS

[1] = Ki class, compounds tested in 5% DMSO, 12 concentrations, read-out: Human ACE-2 Activity
[2] = Ki class, compounds tested in 5% DMSO, 12 compound concentrations, Ki=Kiapp/(1+[S]/Km), read-out: Human ACE-2 Activity
[3] = Table 3, very good ACE-2 inhibiting compounds, species not given, read-out: ACE-2 Activity, Ki
[4] = Ki class per key, compounds tested in 5% DMSO, 12 compound concentrations, 25° C., Ki=Kiapp/(1+[S]/Km), read-out: Human ACE-2 Activity

| Compound | pKi (Carboxypeptidase A) | pKi (ACE (Sigma, A2580)) | pKi (ACE-2; [2]) | further results |
| --- | --- | --- | --- | --- |
| CC(C)CC(N[C@@H](Cc1cnc[nH]1)C(=O)NCCc1ccccc1)C(=O)O (single isomer, unassigned) [FX, 2-[2-(3H-Imidazol-4-yl)-1-phenethylcarbamoyl-ethylamino]-4-methyl-pentanoic acid] | < 4.30 | < 4.30 |  |  |
| CC(C)C[C@H](N[C@@H](CCc1ccccc1)C(=O)O)C(=O)O [D, 2-(1-Carboxy-3-phenyl-propylamino)-4-methyl-pentanoic acid] |  | < 4.30 |  | pKi (ACE-2; [1]): < 6.30 |
| 4-Methyl-2-(3-phenethyl-ureido)-pentanoic acidmethyl ester [DG] | < 4.30 | < 4.30 |  |  |
| CC(=O)N(C(CCc1ccccc1)C(=O)O)[C@@H](CC(C)C)C(=O)O (single isomer, unassigned) [AU, 2-[Acetyl-(1-carboxy-3-phenyl-propyl)-amino]-4-methyl-pentanoic acid] | < 4.30 | < 4.30 |  |  |
| CC(C)CC(N[C@@H](Cc1cn(Cc2ccc(Cl)cc2)cn1)C(=O)O)C(=O)O (stereo partly drawn) [EU, 2-[1-Carboxy-2-[1-(4-chloro-benzyl)-1H-imidazol-4-yl]-ethylamino)4-methyl-pentanoic acid] | 4.30 to 5.00 | < 4.30 |  |  |
| 2-[2-(3-Benzyl-3H-imidazol-4-yl)-1-carboxy-ethylamino]-butync acid [GG] | < 4.30 | < 4.30 |  |  |
| CC(C)CC(NC(Cc1cncn1Cc1cccc([N+](=O)[O-])c1)C(=O)O)C(=O)O (stereo not drawn) [GA] | 4.30 to 5.00 | < 4.30 |  |  |
| CC(C)CC(N[C@H](CO)Cc1c[nH]cn1)C(=O)O (single isomer, unassigned) [FP, 2-[1-Hydroxymethyl-2-(1H-imidazol-4-yl)-ethylamino)4-methyl-pentanoic acid] | < 4.30 | < 4.30 |  |  |
| CC(C)CC(N[C@@H](Cc1cncn1COCc1ccccc1)C(=O)NCCc1ccccc1)C(=O)O (single isomer, unassigned) [FN, 2-[2-(3-Benzyloxymethyl-3H-imidazol-4-yl)-1-phenethylcarbamoyl-ethylamino]-4-methyl-pentanoic acid] | < 4.30 | < 4.30 |  |  |
| CC(CS)C(=O)O (stereo not drawn) [G, 3-Mercapto-2-methyl-propionic acid] |  | < 4.30 |  | pKi (ACE-2; [1]): < 6.30 |
| CC(C)C[C@H](NC(CCc1ccccc1)C(=O)O)C(=O)O (stereo partly drawn) [C, 2-(1-Carboxy-3-phenyl-propylamino)-4-methyl-pentanoic acid] |  | < 4.30 |  | pKi (ACE-2; [1]): < 6.30 |
| CC(C)C[C@H](N[C@@H](CCNC(=O)c1ccc2ccccc2c1)C(=O)O)C(=O)O [KE] |  |  | < 6.30 |  |
| CC(C)CC(N[C@@H](Cc1cncn1Cc1ccc(OC(F)(F)F)cc1)C(=O)O)C(=O)O (single isomer, unassigned) [HT, 2-[1-Carboxy-2-[3-(4-trifluoromethoxy-benzyl)-3H-imidazol-4-yl]-ethylamino]-4-methyl-pentanoic acid] |  |  | < 6.30 |  |
| CC(C)C[C@H](N[C@@H](CC(=O)Nc1nc2ccc(Cl)cc2s1)C(=O)O)C(=O)O [MB, (S,S)-2-[1-Carboxy-2-(6-chloro-benzothiazol-2-ylcarbamoyl)-ethylamino]-4-methyl-pentanoic acid] |  |  | > 7.00 | pKi (ACE-2; [3]): > 7.30 |
| CC(C)C[C@H](N[C@@H](Cc1ccc(OCC2COc3ccc(F)cc32)cc1)C(=O)O)C(=O)O (stereo partly drawn) [QW, 2-[1-Carboxy-2-[4-(5-fluoro-2,3-dihydro-benzofuran-3-ylmethoxy)-phenyl]-ethylamino]-4-methyl-pentanoic acid] |  |  |  | pKi (ACE-2; [4]): > 7.00; pKi (ACE-2; [3]): > 7.30 |
| CCCCOC(=O)[C@H](Cc1cncn1Cc1cc(Cl)cc(Cl)c1)N[C@@H](CC(C)C)C(=O)O [LD, (S,S) 2-{1-Butoxycarbonyl-2-[3-(3,5-dichloro-benzyl)-3H-imidazol-4-yl]-ethylamino}-4-methyl-pentanoic acid] |  |  | > 7.00 |  |
| O=C(O)[C@H](CCc1ccccc1)N[C@@H](Cc1cncn1Cc1cc(Cl)cc(Cl)c1)C(=O)O [PN, (S,S) 2-{1-Carboxy-2-[3-(3,5-dichloro-benzyl)-3H-imidazol-4-yl]-ethylamino}-4-phenyl-butyric acid] |  |  |  | pKi (ACE-2; [4]): > 7.00; pKi (ACE-2; [3]): > 7.30 |
| CC(C)CC(N[C@@H](Cc1cncn1Cc1cc(C(F)(F)F)cc(C(F)(F)F)c1)C(=O)O)C(=O)O (single isomer, unassigned) [IG, 2-[2-[3-(3,5-Bis-trifluoromethyl-benzyl)-3H-imidazol-4-yl]-1-carboxy-ethylamino]-4-methyl-pentanoic acid] |  |  | < 6.30 |  |
| CC(C)CC(N[C@@H](Cc1cncn1CCC1CCCCC1)C(=O)O)C(=O)O (single isomer, unassigned) [JJ, 2-[1-Carboxy-2-[3-(2-cyclohexyl-ethyl)-3H-imidazol-4-yl]-ethylamino]4-methyl-pentanoic acid] |  |  | < 6.30 |  |
| CC(C)C[C@H](N[C@@H](Cc1ccc(Oc2ccc(F)cc2)cc1)C(=O)O)C(=O)O [QP, 2-[1-Carboxy-2-[4-(4-fluoro-phenoxy)-phenyl]-ethylamino]-4-methyl-pentanoic acid] |  |  |  | pKi (ACE-2; [4]): > 7.00; pKi (ACE-2; [3]): 7.00 to 7.30 |
| COC(=O)[C@H](Cc1cncn1Cc1cc(Cl)cc(Cl)c1)N[C@@H](CC(C)C)C(=O)OC [MM, 2-{2-[3-(3,5-Dichloro-benzyl)-3H-imidazol-4-yl]-1-methoxycarbonyl-ethylamino}-4-methyl-pentanoic acidmethyl ester] |  |  | > 7.00 | pKi (ACE-2; [3]): > 7.30 |
| C[C@H](N[C@@H](Cc1cncn1Cc1cc(Cl)cc(Cl)c1)C(=O)O)C(=O)O [PL, (S,S) 2-(1-Carboxy-ethylamino)-3-[3-(3,5-dichloro-benzyl)-3H-imidazol-4-yl]-propionic acid] |  |  |  | pKi (ACE-2; [4]): > 7.00; pKi (ACE-2; [3]): > 7.30 |
| CC(C)C[C@H](N[C@@H](Cn1ccn(Cc2cc(Cl)cc(Cl)c2)c1=O)C(=O)O)C(=O)O [LF, (S,S) 2-{1-Carboxy-2-[3-(3,5-dichloro-benzyl)-2-oxo-2,3-dihydro-imidazol-1-yl]-ethylamino}-4-methyl-pentanoic acid] |  |  | > 7.00 | pKi (ACE-2; [3]): 7.00 to 7.30 |
| COC(=O)[C@@H](Cc1cccc(O)c1)N[C@@H](CC(C)C)C(=O)OCc1ccccc1 [LL, 2-[2-(3-Hydroxy-phenyl)-1-methoxycarbonyl-ethylamino]-4-methyl-pentanoic acid benzylester] |  |  | < 6.30 |  |
